Results on eight molecules are retold here after ChEMBL document CHEMBL5143540, “Design, synthesis and biological evaluation of nitrofuran-1,3,4-oxadiazole hybrids as new antitubercular agents” (Bioorg Med Chem, 2022).

The test concerns Mycobacterium tuberculosis. The experiment in a line: Antitubercular activity against multi-drug resistant Mycobacterium tuberculosis 16833 assessed as reduction in bacterial growth incubated for 7 days by Alamar blue assay. It counts as functional. Particulars: Mycobacterium tuberculosis, 16833, 168 h; time 7 day.

Values after ≈ are worked out from the molar mass of the structure shown.

As to `CC(C)(C)c1ccc(-c2nnc(-c3ccc([N+](=O)[O-])o3)o2)cc1`, the MIC (usually the smallest concentration in the dilution series that meets the test's criterion for growth inhibition) is more than 32 µg/mL.
Then `COc1ccc(-c2nnc(CNC(=O)c3ccc([N+](=O)[O-])o3)o2)cc1`, with 3.58 µg/mL (≈ 10.4 µM); and `NNC(=O)c1ccncc1` [ISONIAZID], with more than 32 µg/mL; and `CO[C@H]1/C=C/O[C@@]2(C)Oc3c(C)c(O)c4c(O)c(c(/C=N/N5CCN(C)CC5)c(O)c4c3C2=O)NC(=O)/C(C)=C\C=C\[C@H](C)[C@H](O)[C@@H](C)[C@@H](O)[C@@H](C)[C@H](OC(C)=O)[C@@H]1C` [RIFAMPIN], with more than 32 µg/mL.
On to `O=C(Nc1nnc(-c2ccc(Br)cc2)o1)c1ccc([N+](=O)[O-])o1`, for which the MIC came to 1.44 µg/mL (≈ 3.8 µM).
`O=C(NCc1nnc(-c2ccc(OC(F)(F)F)cc2)o1)c1ccc([N+](=O)[O-])o1`: the minimal inhibitory concentration (MIC) was 1.96 µg/mL (≈ 4.91 µM).
`CC(C)(C)c1ccc(-c2nnc(CNC(=O)c3ccc([N+](=O)[O-])o3)o2)cc1`: the minimal inhibitory concentration (MIC) was determined as 1.85 µg/mL (≈ 5 µM).
As for `O=C(NCc1nnc(-c2ccc(C(F)(F)F)cc2)o1)c1ccc([N+](=O)[O-])o1`, the MIC was found to be 1.93 µg/mL (≈ 5.04 µM).
